Data: patent US10519119B2, “Nicotinic acid derivatives, their preparation and the use thereof” (XIAMEN INSTITUTE OF RARE EARTH MATERIALS, priority 2017, dated 2019)

Experiments:
[1] = tested on: colorectal cancer cell line HCT-116; assay: MTT test of activity in inhibiting colorectal cancer cell line HCT-116; type: cell-based, human; settings: for IC50: Homo sapiens, HCT-116 cells, MTT method, same procedure as A549; for inhibitory activity on colorectal cancer cell line HCT116: statement in words
Experimental: [The procedure below names another cell line; the source lists this cell line under the same test.] (§1) The specific test process was as follows:
(§2) (1) The lung cancer cell line A549 was plated in a 96-well plate and cultured in 100 μL medium. Until the cells were grown to 90%, 1 μL of the drug (i.e., the above example compounds) was added to the wells, each drug was tested for 8 different concentrations (the initial concentration of the drug, 50 μM, 5 μM, 500 nM, 50 nM, 5 nM, […], respectively), and each concentration of drug was experimented in 3 wells. After cultivation for 24 h, 20 μL of the already formulated 5 mg/mL MTT solution was added to each well, and the medium was aspirated after 4 hours, 150 μL DMSO was added to each well and its optical density (OD) value was measured at a wavelength of 595 nm. The negative control was DMSO.
(§3) The IC50 value was calculated by GraphPad Prism5 software.

[2] = tested on: human lung cancer cell line A549; assay: MTT test of activity in inhibiting human lung cancer cell A549; type: cell-based; settings: for IC50: Homo sapiens, A549 cells, MTT method, cultivation 24 h with drug, OD at 595 nm; for inhibitory activity on lung cancer cell line A549: statement in words
Experimental: as §1, §2, §3

[3] = tested on: breast cancer cell line MCF-7; assay: MTT test of activity in inhibiting breast cancer cell line MCF-7; type: cell-based, human; settings: for IC50: Homo sapiens, MCF7, MCF-7 cells, MTT method, same procedure as A549; for inhibitory activity on breast cancer cell line MCF-7: statement in words
Experimental: [The procedure below names another cell line; the source lists this cell line under the same test.] as §1, §2, §3

SMILES	IC50 [1] [µM]	inhibitory activity on colorectal cancer cell line HCT116 [1]	IC50 [2] [µM]	inhibitory activity on lung cancer cell line A549 [2]	IC50 [3] [µM]	inhibitory activity on breast cancer cell line MCF-7 [3]
COc1ccc(-c2cc(COC(=O)c3cc(Cl)cnc3Cl)on2)cc1 [YP-44]	1640	strong inhibitory activity	172	strong inhibitory activity	149	strong inhibitory activity
O=C(OCc1cc(-c2ccc(Cl)cc2)no1)c1cc(Cl)cnc1Cl [YP-51]	–	strong inhibitory activity	187	strong inhibitory activity	–	strong inhibitory activity
COc1ccc(-c2cc(COC(=O)c3ccc(C(F)(F)F)nc3)on2)cc1 [YP-63]	287	strong inhibitory activity	154	strong inhibitory activity	132	strong inhibitory activity
O=C(OCc1cc(-c2ccc(Br)cc2)no1)c1ccc(C(F)(F)F)nc1 [YP-73]	–	strong inhibitory activity	207	strong inhibitory activity	43	strong inhibitory activity
Cc1ccc(-c2cc(COC(=O)c3ccc(C(F)(F)F)nc3C)on2)cc1 [YP-78]	72.5	strong inhibitory activity	198	strong inhibitory activity	160	strong inhibitory activity
Cc1nc(C(F)(F)F)ccc1C(=O)OCc1cc(-c2ccc(Cl)cc2)no1 [YP-89]	279	strong inhibitory activity	896	strong inhibitory activity	124	strong inhibitory activity
O=C(OCc1cc(-c2ccc(Cl)cc2)no1)c1ccc(Oc2ccccc2)nc1 [YP-108]	–	strong inhibitory activity	241	strong inhibitory activity	112	strong inhibitory activity
